Data taken from patent US5858692A, “Polychlorinated biphenyls (PCB) immunoassay method, its components and a kit for use in performing the same” (ENSYS, Inc., priority 1995, dated 1999).

Test system: monoclonal F40-11G6 antibody (anti-PCB monoclonal antibody)
Assay: 1 ppm PCB immunoassay (competitive ELISA), cross-reactivity of compounds found at PCB sites or of similar structure
Format: binding, Balb/c mice
Conditions: for PERCENT CROSS-REACTIVITY: calculated percent cross-reactivity in the 1 ppm PCB immunoassay; for CONCENTRATION GIVING A POSITIVE RESULT; SOIL EQUIVALENT / CON[…] A POSITIVE RESULT; SOIL EQUIVALENT: positive compared to the kit standard (AROCLOR 1248, 0.7 ppm) in the 1 ppm PCB immunoassay
Description: The immunoassay of the present invention is performed according to the following procedure. Monoclonal anti-PCB antibody is immobilized in an assay vessel, or other solid support, preferably to the bottom of a polystyrene tube, at a concentration, of from 0.005 to 20 μg/tube, preferably 0.1 to 0.4 μg/tube. The concentration and affinity of the antibody for the sample molecules and reporter reagent molecules directly influences the overall sensitivity of the final method.
Antibody coated tubes were prepared by passively coating polystyrene (12×75 mm, NUNC) tubes with the monoclonal F40-11G6 antibody diluted in PBS and incubating overnight.
10 g of a soil sample were placed in an extraction vial containing 20 mL of methanol and 5 steel pellets (6mm) and the vial and its contents shaken for 1 minute to disperse the soil particles and extract the PCB. The sample was then filtered to clarify the sample using a filter of glass fiber and 0.45μ Teflon. 45 uL of the clarified filtrate sample was mixed with 955 μl of 10 mM PBS (pH=7.4) and the resulting mixture added to lyophilized enzyme conjugate reagent (0.3 μg) and mixed. At the same time, 2×45 uL of the AROCLOR 1248 standard are similarly treated. The sample and the two standards were then poured into three identical antibody coated tubes, respectively, and the resulting solution mixed. The resulting solution was incubated for 10 minutes at ambient temperature and then washed 4× with a wash buffer (detergent-saline solution). 250 uL of tetramethylbenzidene solution (KP Laboratories, Cat. No. 50-76-02) was added along with 250 uL of hydrogen peroxide solution (KPL, Cat. No. 50-65-02) and the resultant solution mixed. After incubating for 2.5 minutes the color development reaction was stopped with 250 uL of stop solution (1M sulfuric acid).
The optical density (OD) of the test sample was compared to the OD of the AROCLOR 1248 standard (0.7 ppm) which was tested simultaneously with the sample. If the sample OD is less than the standard OD, the sample contains greater than 1 ppm PCBs. If the sample OD is greater than the standard OD, the sample contains less than 1 ppm PCBs. Other concentration ranges can be assessed by diluting the test samples with suitable diluents, as long as they are non-reactive with the components of the assay.
These compounds were tested for their reactivity with the present 1 ppm PCB immunoassay. […] Overall, the compounds were each less than 1% cross-reactive, with one exception at 2%, indicating high-specificity for PCBs in the present method.

Row | Molecule | PERCENT CROSS-REACTIVITY [%] | CONCENTRATION GIVING A POSITIVE RESULT; SOIL EQUIVALENT | CON[…] A POSITIVE RESULT; SOIL EQUIVALENT
1 | Oc1c(Cl)cc(Cl)c2ccccc12 [2,4-DICHLORO-1-NAPTHOL] | 2 | 50 PPM | 
2 | c1ccc2ccccc2c1 [NAPHTHALENE] | < 0.01 | > 10,000 PPM | 
3 | O=C(O)COc1ccc(Cl)cc1Cl [2,4-D] | < 0.1 | 1,000-10,000 PPM | 
4 | ClC=C(Cl)Cl [TRICHLOROETHYLENE] | < 0.01 | > 10,000 PPM | 
5 | Clc1cccc2ccccc12 [1-CHLORONAPHTHALENE] | < 0.01 | > 10,000 PPM | 
6 | Clc1ccc(C(c2ccccc2Cl)C(Cl)(Cl)Cl)cc1 (centres unmarked) [O,P-DDT] | < 0.01 | > 10,000 PPM | 
7 | Clc1cc(Cl)c(Cl)c(Cl)c1Cl [PENTACHLOROBENZENE] | < 0.01 | > 10,000 PPM | 
8 | Clc1ccc(Cl)c(Cl)c1 [1,2,4-TRICHLOROBENZENE] | < 1 | 100-1,000 PPM | 
9 | CC(Oc1cc(Cl)c(Cl)cc1Cl)C(=O)O (centres unmarked) [SILVEX] | < 1 | 100-1,000 PPM | 
10 | Clc1c2ccccc2c(Cl)c2ccccc12 [9,10-DICHLOROANTHRACENE, 9,10-DICHLORO-ANTHRACENE] | < 0.01 | > 10,000 PPM | 
11 | O=S(=O)(Oc1ccc(Cl)cc1Cl)c1ccccc1 [2,4-DICHLOROPHENYL BENZENESULFONATE] | < 1 | 100-1,000 PPM | 
12 | XYLENES | < 0.01 | > 10,000 PPM | 
13 | O=S(=O)(c1ccc(Cl)cc1)c1cc(Cl)c(Cl)cc1Cl [TETRADIFON] | < 10 | 10-100 PPM | 
14 | Oc1c(Cl)c(Cl)c(Cl)c(Cl)c1Cl [PENTACHLOROPHENOL] | < 0.01 | > 10,000 PPM | 
15 | Clc1cc(Cl)c(-c2ccc(-c3ccccc3)cc2)c(Cl)c1 [2,4,6-TRICHLOR-p-TERPHENYL] | < 0.01 | > 10,000 PPM | 
16 | c1ccccc1 [BENZENE] | < 0.01 |  | > 10,000 PPM
17 | COC(=O)c1cc(Oc2ccc(Cl)cc2Cl)ccc1[N+](=O)[O-] [BIFENOX] | < 1 | 100-1,000 PPM | 
18 | ClCCl [METHYLENE CHLORIDE] | < 0.01 |  | > 10,000 PPM
19 | Clc1c(Cl)c(Cl)c(Cl)c(Cl)c1Cl [HEXACHLOROBENZENE] | < 0.01 | > 10,000 PPM | 
